This assay has as its target T1, TRIM21 PRYSPRY (Homo sapiens, UniProt P19474).
T1 construct: PRYSPRY domain (TRIM21his-PS)
Nature of the assay: crystal structure; fluorescence polarisation, tryptophan quenching, nanoDSF. The format is binding. (Fluorescence polarisation rises when a labelled molecule tumbles more slowly, as on binding a larger partner.)

Molecules are shown by their SMILES.

T1 sequence (P19474 287-465 limits assumed): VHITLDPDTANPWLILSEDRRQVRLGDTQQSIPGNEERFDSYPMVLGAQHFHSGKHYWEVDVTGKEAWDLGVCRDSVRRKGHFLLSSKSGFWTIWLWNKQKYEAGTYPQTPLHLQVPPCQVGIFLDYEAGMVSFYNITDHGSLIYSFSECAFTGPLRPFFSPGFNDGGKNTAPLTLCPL

Broadly, the Kd is the free concentration of one partner at which half of the binding sites on the other are occupied at equilibrium, for simple one-to-one binding. Consider `CNC(=O)[C@H](Cc1ccncc1)NC(=O)[C@@H]1C[C@@H](C2CCCCC2)CN1C(=O)C[C@H](N)c1ccccc1OC` [MRC37], for which the affinity, expressed as Kd, was 400 nM. In other words, the sub-micromolar range.

(Values after publication PMC12647892, “State-selective small molecule degraders that preferentially remove aggregates and oligomers” (Nature Communications, 2025).)
